Key:
[1] = system: ATF3, EGR1 expression in SW982 cells; experiment: Gene expression changes in vitro by RT-PCR, normalized to GAPDH; format: cell-based, human; conditions: SW982 in vitro culture
Method: HS-SY-II and SW982 cells were treated with EZH2 inhibitors (Compound A or EPZ-011989) and collected at the indicated time points. Total RNA isolation and cDNA synthesis were performed using the TaqMan Gene Expression Cells-to-CT kit (4399002, Life technologies) according to the manufacturer's protocol. ATF3, EGR1, CDKN2A and GAPDH expression were analyzed by using the TaqMan Gene Expression Assays (Life technologies, 4331182) and the TaqMan Probes (Hs00231069_m1, Hs00152928_m1, Hs00233365_m1, and Hs99999905_m1, respectively).

[2] = system: H3K27me3/total H3 in SW982 cells; experiment: H3K27 methylation alterations by ELISA of extracted histones; format: cell-based, human; conditions: SW982, 96 hours
Method: (§1) HS-SY-II and SW982 cells were treated with either DMSO or Compound A starting at 40 nmol/L and decreasing in fourfold dilutions for 96 hours. Cells were washed by ice cold PBS, harvested by cell scraper, and lysed with 100 μl of nuclear extraction buffer (10 mM Tris-HCl, 10 mM MgCl2, 25 mM KCl, 1% Triton X-100, 8.6% Sucrose, plus 1× Halt Protease inhibitor cocktail (1861281, Thermo Scientific). Nuclei were collected by centrifugation at 600 g for 5 minutes at 4° C. and washed once with ice cold PBS. Supernatant was removed and histones extracted for one hour with 100 μL of 0.4 N cold sulfuric acid. Extracts were clarified by centrifugation at 10,000 g for 10 minutes at 4° C. and transferred to a fresh microcentrifuge tube containing 1 mL of ice cold acetone. Histones were precipitated at −20° C. for overnight, pelleted by centrifugation at 10,000 g for 10 minutes and resuspended in 100 μl of water. Histones were quantified using the BCA protein assay (23225, Pierce). […] Subsequently, the developed colors in the wells were measured using a plate spectrophotometer (SpectraMax 250, Molecular Devices) at 450 nm (reference wavelength 650 nm). The H3K27me3 levels were adjusted to total histone H3, and expressed as fold changes to DMSO control.
(§2) The range of IC50 values (two independent experiments), shown in FIG. 6B, were determined by GraphPad Prism (GraphPad Software).

[3] = system: H3K27me3/total H3 in HS-SY-II cells; experiment: as above; format: cell-based, human; conditions: 96 hours
Method: as §1, §2

[4] = Plasma concentrations in HS-SY-II xenograft model (LC/MS/MS); format: in vivo, mice; conditions: oral twice daily for 7 days; 5 minutes before and 3 hours after the last dose
Method: HS-SY-II cells were harvested during mid-log phase growth, and resuspended in Hank balanced salt solution with 50% Matrigel (BD Biosciences). Balb/C-nu mice (Charles River Laboratories Japan) received 1×10^7 cells (0.1 mL cell suspension) subcutaneously in the right flank. Mice carrying tumors of approximately 200 mm^3 (31 days after injection) were sorted into treatment groups with similar mean tumor volumes. Compound A or vehicle (0.5% MC+0.1% Tween-80 in water) was administered at the indicated doses on twice a day for 7 days by oral gavage. Each dose was delivered in a volume of 0.2 mL/20 g mouse (10 mL/kg), and adjusted for the last recorded weight of individual animals. Peripheral blood samples were collected at approximately 5 minutes before and 3 hours after the last dose from Compound A-treated mice. After obtaining plasma samples by centrifugation, the analysis for plasma concentrations of Compound A was conducted by the liquid chromatography-tandem mass spectrometry (LC/MS/MS) method. The UPLC system (Acquity, Waters) equipped with a mass spectrometer (Quattro premier, MICROMASS) was used for quantification of Compound A. The concentrations are plotted (n=5) in FIG. 7A. Each bar represents a mean of plasma concentration in each group.

[5] = system: HLA genes, Fas, KLRD1 expression in synovial sarcoma PDX tumors; conditions: 400 mg/kg BID, PDX tumors harvested on day 35
Method: Tumor samples were collected at approximately 3 hours after the last dose from mice used in analysis for PK values and PD alterations. The tumor samples were stored using RNAlater (AM7020, Life technologies). Total RNA isolation and the reverse transcription were performed by RNeasy Mini Kit (74104, Qiagen) and High capacity cDNA Reverse Transcription kit (4368814, Life technologies) according to the manufacturer's instruction. The cDNA samples were used for real time-PCR as described above. The expression levels were adjusted to GAPDH and expressed as fold changes to vehicle control (FIG. 9). Additionally or alternatively, total RNAs were isolated from frozen tumor samples. The TruSeq™ RNA Sample Prep Kit (Illumina) was used to build cDNA library for paired-end sequencing on the Illumina HiSeq (details described in Illumina TruSeq RNA Sample Preparation Guide). […] Paired-end reads from ˜50M clusters per sample were generated using TruSeq SBS kit on the Illumina HiSeq.
Raw sequencing reads in FASTQ format was aligned to human genome hg19 as well as mouse genome mm10. Transcriptomic quantification was carried out with the RSEM v1.1.13 program, using USCS KnownGene transcriptome as reference. […]
The patient-derived xenograft (PDX) models CTG-0331 and CTG-0771 are low passage Champions TumorGraft™ models representing human synovial sarcoma. […] Tumor size was measured twice weekly. […]

plasma concentrations [4]: Dose dependent exposure
Compound: CCN(c1cc(-c2ccc(CN3CCOCC3)cc2)cc(C(=O)NCc2c(C)cc(C)[nH]c2=O)c1C)C1CCOCC1 [Compound A]
ATF3 and EGR1 expression [1]: not in SW982
ratio of H3K27me3/total H3 (ratio to control) [2]: decreased ratios
ratio of H3K27me3/total H3 (ratio to control) [3]: decreased ratios
expression of HLA genes, Fas, and KLRD1 relative to vehicle [5]: increased

Reference: US10946024B2, “Method for treating cancer” (Epizyme, Inc., priority 2014, dated 2021)
